Data published in patent US6635634B2, “Propanolamine derivatives” (Fujisawa Pharmaceutical Co., Ltd., priority 1998, dated 2003).

Experiments:
anesthetized dog = experiment: Effect on the increase in intravesical pressure induced by carbachol in anesthetized dog (Test 1); format: in vivo; details: for Increase in intravesical pressure (mmHg): 0.01 mg/kg intravenously 5 minutes before carbachol (1.8 μg/kg); for effect on the increase in intravesical pressure induced by carbachol (in words): anesthetized dog, 0.01 mg/kg intravenously
Description: Effect on the increase in intravesical pressure induced by carbachol in anesthetized dog
Female Beagle dogs weighing 8.0-15.0 kg were fasted for 24 hours and maintained under halothane anesthesia. A 12F Foley catheter was lubricated with water soluble jelly, inserted into the urethral orifice and advanced approximately 10 cm until the balloon tip was placed well inside the bladder. The balloon was then inflated with 5 ml of room air and catheter slowly withdrawn just part the first resistance that is felt at the bladder neck. Urine was completely drained out throught the catheter, and 30 ml of biological saline was infused. The catheter was connected to pressure transducer, and intravesical pressure was continuously recorded. The test compound was injected intravenously at 5 minutes before the administration of carbachol (1.8 μg/kg).
According to a similar manner to that of Test 1 described before, the effects of the present compounds on the intravesical pressure were evaluated.

anesthetized rat [1] = experiment: Effect on cystometrogram in anesthetized rat (Test 2); format: in vivo; details: for bladder capacity (relative % of before value): 0.01 mg/kg intravenously, N = 5
Source text: Effect on Cystometrogram in Anesthetized Rat Male S.D. rats, aged 7-9 weeks, were anesthetized with urethane (1.2 g/kg, sc) and supine on a board. After a midline incision in the abdomen, the bladder was exposed. Polyethylene catheters, which were used to measure the intravesical pressure and to infuse saline, were inserted into the bladder through a small incision at the apex of the bladder dome. The bladder catheters were connected to an infusion pump and pressure transducer respectively. Saline was infused a rate of 5.0 ml/hr for 1 hour. Cystometrography was performed at 15 minutes intervals for 1 hour. The bladder capacity (volume) was calculated from the time required to fill the bladder. The test compound was administered intravenously via femoral vein.

anesthetized rat [2] = experiment: Effect on rhythmic contraction of bladder in anesthetized rat (Test 3); format: in vivo; details: dose of 0.1 mg/kg intravenously
Source text: Effect on Rhythmic Contraction of Bladder in Anesthetized Rat
Male S.D. rats, aged 7-8 weeks, were anesthetized with urethane (1.2 g/kg, ip) and supine on a board. After a midline incision in the abdomen, the bladder was exposed. Balloon catheter, which was used to measure the intravesical pressure, was inserted into the bladder through a small incision at the apex of the bladder dome. The balloon was then inflated with distilled water and the balloon port of the catheter was connected to pressure transducer. Rhythmic contraction of bladder induced by increase intravesical pressure to 10 mmHg. The test compound was administered intravenously via femoral vein.

Cl.Oc1cc2c(cc1Cl)CC(N(Cc1ccccc1)C[C@H](O)COc1ccccc1)CCC2 (stereo partly drawn)
melting point: 94 to 99 °C (dec.)

Cl.Oc1ccc2c(c1)CCCC(NC[C@H](O)COc1ccccc1)C2 (stereo partly drawn)
melting point: 53.5 °C (dec.)

Cl.Oc1cccc2c1CCCC(NC[C@H](O)COc1ccccc1)C2 (stereo partly drawn)
melting point: 73 to 84 °C (dec.)

Cl.O=c1[nH]c2cccc(OCC(O)CNC3CCCc4cc(O)ccc4C3)c2[nH]1 (stereo not drawn)
melting point: 100.5 °C (dec.)

O=c1[nH]c2cccc(OCC(O)CN(Cc3ccccc3)C3CCCc4cc(O)ccc4C3)c2[nH]1 (stereo not drawn) [Example 11, 1-[N-benzyl-N-(6,7,8,9-tetrahydro-2-hydroxy-5H-benzocyclohepten-6-yl)amino]-3-(1,3-dihydro-2-benzoimidazolon-4-yloxy)-2-propanol]
melting point: 111 to 133 °C (dec.)

COc1ccc(C(Cc2ccccc2)NC[C@H](O)c2ccc(O)c(NS(C)(=O)=O)c2)cc1OC (stereo partly drawn) [Test Compound (1), N-[5-[2-[l-(3,4-Dimethoxyphenyl)-2-phenylethylamino]-1(R)-hydroxyethyl]-2-hydroxyphenyl]methanesulfonamide]
Increase in intravesical pressure (mmHg) (anesthetized dog; Control 5.0 ± 0.9, N = 3, P<0.01 vs Control): 1.8 ± 0.3 mmHg | effect on the increase in intravesical pressure induced by carbachol (in words) (anesthetized dog): inhibited the increase in intravesical pressure induced by carbachol

O=c1n(CCCC2CCCC2)nnn1-c1ccc(S(=O)(=O)Nc2ccc(CCNC[C@H](O)c3cccnc3)cc2)cc1 [Test Compound (2), N-[4-[2-[2(R)-Hydroxy-2-(pyridin-3-yl)ethylamino]ethyl]-phenyl]-4-[4-(3-cyclopentylpropyl)-5-tetrazolon-1-yl]-benzenesulfonamide]
Increase in intravesical pressure (mmHg) (anesthetized dog; Control 5.0 ± 1.2, N = 4, P<0.05 vs Control): 2.3 ± 1.5 mmHg | effect on the increase in intravesical pressure induced by carbachol (in words) (anesthetized dog): inhibited the increase in intravesical pressure induced by carbachol

CS(=O)(=O)Nc1cc(C(O)CNCCOc2ccc3c(c2)[nH]c2ccccc23)ccc1O.Cl (stereo not drawn) [Test Compound (3), N-[5-[2-[2-(9H-Carbazol-2-yloxy)ethylamino]-1-hydroxyethyl]-2-hydroxyphenyl]methanesulfonamide hydrochloride]
Increase in intravesical pressure (mmHg) (anesthetized dog; Control 5.0 ± 0.5, N = 3, P<0.01 vs Control): 1.7 ± 0.6 mmHg | effect on the increase in intravesical pressure induced by carbachol (in words) (anesthetized dog): inhibited the increase in intravesical pressure induced by carbachol

CCOC(=O)COc1ccc2c(c1)C[C@@H](NC[C@H](O)c1cccc(Cl)c1)CC2.Cl [compound (4), 2(S)-[ (7-Ethoxycarbonylmethoxy-1,2,3,4-tetrahydro-naphthalen-2-yl)amino]-1(R)-(3-chlorophenyl)ethanol hydrochloride]
bladder capacity (relative % of before value) (anesthetized rat [1]; time 0-15 minutes, vehicle 128): 152% | bladder capacity (relative % of before value) (anesthetized rat [1]; time 15-30 minutes, vehicle 111): 146% | bladder capacity (relative % of before value) (anesthetized rat [1]; time 30-45 minutes, vehicle 114): 143% | bladder capacity (relative % of before value) (anesthetized rat [1]; time 45-60 minutes, vehicle 104): 151% | effect on bladder capacity (in words) (anesthetized rat [1]; dose of 0.01 mg/kg intravenously): increased in bladder capacity

COC(=O)COc1ccc(C[C@@H](C)NC[C@H](O)c2cccc(Cl)c2)cc1 [compound (5), Methyl 4-[2(R)-[2-(3-chlorophenyl)-2(R)-hydroxyethyl-amino]propyl]phenoxyacetate]
effect on contractile force of bladder (in words) (anesthetized rat [2]): decreased in contractile force of bladder

N-butyl-2-[8-[[(2S)-2-hydroxy-3-[4-hydroxy-3-methanesulfonylamino]phenoxypropyl]amino]-6,7,8,9-tetrahydro-5H-benzocyclohepten-2-yloxy]acetamide hydrochloride [Example 155]
ED50 (effect on the intravesical pressure) (anesthetized dog; similar manner to Test 1, anesthetized dog): 0.0108 mg/kg
